Each block holds one molecule with its values, some of them ahead of it.
Test system: 282377-053-R-J1-PDC complex spheroid viability
Test: Anticancer human tumor 282377-053-R-J1-PDC patient-derived colon adenocarcinoma cell line growth inhibition [RAS]
Settings: for IC50: curve of first compound; for viability, T/C: stronger effect = lower value
Summary of the method: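 Agents were tested in combination matrices in half-log decrements from a top concentration at or near clinical Cmax (10 microM if undetermined). Targets were multi-cell spheroids of tumour lines plus HUVEC and MSC stromal cells.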
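Note: spheroids exposed to agents for seven days before readout.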
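Throughout, for viability, T/C: luminescence viability as percent of DMSO vehicle control wells.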

- IC50 (second compound 0.00316 µM): > 300 nM
- IC50 (second compound 0.01 µM): > 300 nM
- IC50 (second compound 0.0316 µM): > 300 nM
- IC50 (second compound 0.1 µM): > 300 nM
- IC50 (second compound 0.316 µM): > 300 nM
- IC50 (second compound 1 µM): > 300 nM
Compound: CCc1c2c(nc3ccc(O)cc13)-c1cc3c(c(=O)n1C2)COC(=O)[C@]3(O)CC + C=CC(=O)N1CCN(c2nc(OCC3CCCN3C)nc3c(F)c(-c4nc(N)cc(C)c4C(F)(F)F)c(Cl)cc23)C(C)C1
- viability, T/C (second compound 0.00316 µM, first compound 0.000949 µM): 117%
- viability, T/C (second compound 0.00316 µM, first compound 0.003 µM): 122%
- viability, T/C (second compound 0.00316 µM, first compound 0.00949 µM): 122%
- viability, T/C (second compound 0.00316 µM, first compound 0.03 µM): 99.6%
- viability, T/C (second compound 0.00316 µM, first compound 0.0949 µM): 87.7%
- viability, T/C (second compound 0.00316 µM, first compound 0.3 µM): 59%
- viability, T/C (second compound 0.01 µM, first compound 0.000949 µM): 109%
- viability, T/C (second compound 0.01 µM, first compound 0.003 µM): 119%
- viability, T/C (second compound 0.01 µM, first compound 0.00949 µM): 95.1%
- viability, T/C (second compound 0.01 µM, first compound 0.03 µM): 93.9%
- viability, T/C (second compound 0.01 µM, first compound 0.0949 µM): 79.4%
- viability, T/C (second compound 0.01 µM, first compound 0.3 µM): 66.1%
- viability, T/C (second compound 0.0316 µM, first compound 0.000949 µM): 99.2%
- viability, T/C (second compound 0.0316 µM, first compound 0.003 µM): 109%
- viability, T/C (second compound 0.0316 µM, first compound 0.00949 µM): 113%
- viability, T/C (second compound 0.0316 µM, first compound 0.03 µM): 93.2%
- viability, T/C (second compound 0.0316 µM, first compound 0.0949 µM): 87%
- viability, T/C (second compound 0.0316 µM, first compound 0.3 µM): 61.7%
- viability, T/C (second compound 0.1 µM, first compound 0.000949 µM): 115%
- viability, T/C (second compound 0.1 µM, first compound 0.003 µM): 126%
- viability, T/C (second compound 0.1 µM, first compound 0.00949 µM): 124%
- viability, T/C (second compound 0.1 µM, first compound 0.03 µM): 85.8%
- viability, T/C (second compound 0.1 µM, first compound 0.0949 µM): 97.8%
- viability, T/C (second compound 0.1 µM, first compound 0.3 µM): 65.1%
- viability, T/C (second compound 0.316 µM, first compound 0.000949 µM): 128%
- viability, T/C (second compound 0.316 µM, first compound 0.003 µM): 114%
- viability, T/C (second compound 0.316 µM, first compound 0.00949 µM): 123%
- viability, T/C (second compound 0.316 µM, first compound 0.03 µM): 98.6%
- viability, T/C (second compound 0.316 µM, first compound 0.0949 µM): 89.7%
- viability, T/C (second compound 0.316 µM, first compound 0.3 µM): 64.2%
- viability, T/C (second compound 1 µM, first compound 0.000949 µM): 135%
- viability, T/C (second compound 1 µM, first compound 0.003 µM): 126%
- viability, T/C (second compound 1 µM, first compound 0.00949 µM): 106%
- viability, T/C (second compound 1 µM, first compound 0.03 µM): 94.2%
- viability, T/C (second compound 1 µM, first compound 0.0949 µM): 95.2%
- viability, T/C (second compound 1 µM, first compound 0.3 µM): 61.2%

- IC50 (second compound 0.00316 µM): 266 nM
- IC50 (second compound 0.01 µM): 257 nM
- IC50 (second compound 0.0316 µM): 215 nM
- IC50 (second compound 0.1 µM): 278 nM
- IC50 (second compound 0.316 µM): 243 nM
- IC50 (second compound 1 µM): 580 nM
Compound: Nc1ccn(C2OC(CO)C(O)C2(F)F)c(=O)n1 (centres undefined) + C=CC(=O)N1CCN(c2nc(OCC3CCCN3C)nc3c(F)c(-c4nc(N)cc(C)c4C(F)(F)F)c(Cl)cc23)C(C)C1
- viability, T/C (second compound 0.00316 µM, first compound 0.00316 µM): 108%
- viability, T/C (second compound 0.00316 µM, first compound 0.01 µM): 98.9%
- viability, T/C (second compound 0.00316 µM, first compound 0.0316 µM): 99%
- viability, T/C (second compound 0.00316 µM, first compound 0.1 µM): 80.1%
- viability, T/C (second compound 0.00316 µM, first compound 0.316 µM): 44.1%
- viability, T/C (second compound 0.00316 µM, first compound 1 µM): 31.6%
- viability, T/C (second compound 0.01 µM, first compound 0.00316 µM): 98.3%
- viability, T/C (second compound 0.01 µM, first compound 0.01 µM): 111%
- viability, T/C (second compound 0.01 µM, first compound 0.0316 µM): 102%
- viability, T/C (second compound 0.01 µM, first compound 0.1 µM): 72.4%
- viability, T/C (second compound 0.01 µM, first compound 0.316 µM): 47.8%
- viability, T/C (second compound 0.01 µM, first compound 1 µM): 35%
- viability, T/C (second compound 0.0316 µM, first compound 0.00316 µM): 117%
- viability, T/C (second compound 0.0316 µM, first compound 0.01 µM): 110%
- viability, T/C (second compound 0.0316 µM, first compound 0.0316 µM): 118%
- viability, T/C (second compound 0.0316 µM, first compound 0.1 µM): 69.2%
- viability, T/C (second compound 0.0316 µM, first compound 0.316 µM): 46.9%
- viability, T/C (second compound 0.0316 µM, first compound 1 µM): 33.8%
- viability, T/C (second compound 0.1 µM, first compound 0.00316 µM): 90.1%
- viability, T/C (second compound 0.1 µM, first compound 0.01 µM): 101%
- viability, T/C (second compound 0.1 µM, first compound 0.0316 µM): 101%
- viability, T/C (second compound 0.1 µM, first compound 0.1 µM): 79.8%
- viability, T/C (second compound 0.1 µM, first compound 0.316 µM): 47.2%
- viability, T/C (second compound 0.1 µM, first compound 1 µM): 34.4%
- viability, T/C (second compound 0.316 µM, first compound 0.00316 µM): 117%
- viability, T/C (second compound 0.316 µM, first compound 0.01 µM): 125%
- viability, T/C (second compound 0.316 µM, first compound 0.0316 µM): 107%
- viability, T/C (second compound 0.316 µM, first compound 0.1 µM): 65.6%
- viability, T/C (second compound 0.316 µM, first compound 0.316 µM): 52.2%
- viability, T/C (second compound 0.316 µM, first compound 1 µM): 32.9%
- viability, T/C (second compound 1 µM, first compound 0.00316 µM): 101%
- viability, T/C (second compound 1 µM, first compound 0.01 µM): 101%
- viability, T/C (second compound 1 µM, first compound 0.0316 µM): 99%
- viability, T/C (second compound 1 µM, first compound 0.1 µM): 88%
- viability, T/C (second compound 1 µM, first compound 0.316 µM): 65.3%
- viability, T/C (second compound 1 µM, first compound 1 µM): 36.5%

Source: PubChem BioAssay AID2060905 (Molecular Pharmacology Branch, DTP, NCI, 2025)
